The values below are quoted from earlier work in patent US9044449B2, “X-ray contrast media compositions and methods of using the same to treat, reduce or delay the onset of CNS inflammation and inflammation associated conditions” (3E THERAPEUTICS CORPORATION, priority 2011, dated 2015).

The subject of one data set is TNF-alpha. The settings on record: in vitro.
The next data set relates to mast cell degranulation. The following applies: in vitro; immunological and non-immunological stimuli.
For data set [1], the system named is allergen induced nasal obstruction. The settings on record: used as a nasal spray, in vivo.
In data set [2] the target is angiotensin converting enzyme (ACE) (Homo sapiens, UniProt P12821). The following applies: in vitro; FIG. 2 reproduced from Lasser et al. 1990.

The structures appear in SMILES notation. Residues, ends and D or L forms follow the SMILES beside them.

angiotensin converting enzyme (ACE), sequence (P12821 30-1306, species assumed): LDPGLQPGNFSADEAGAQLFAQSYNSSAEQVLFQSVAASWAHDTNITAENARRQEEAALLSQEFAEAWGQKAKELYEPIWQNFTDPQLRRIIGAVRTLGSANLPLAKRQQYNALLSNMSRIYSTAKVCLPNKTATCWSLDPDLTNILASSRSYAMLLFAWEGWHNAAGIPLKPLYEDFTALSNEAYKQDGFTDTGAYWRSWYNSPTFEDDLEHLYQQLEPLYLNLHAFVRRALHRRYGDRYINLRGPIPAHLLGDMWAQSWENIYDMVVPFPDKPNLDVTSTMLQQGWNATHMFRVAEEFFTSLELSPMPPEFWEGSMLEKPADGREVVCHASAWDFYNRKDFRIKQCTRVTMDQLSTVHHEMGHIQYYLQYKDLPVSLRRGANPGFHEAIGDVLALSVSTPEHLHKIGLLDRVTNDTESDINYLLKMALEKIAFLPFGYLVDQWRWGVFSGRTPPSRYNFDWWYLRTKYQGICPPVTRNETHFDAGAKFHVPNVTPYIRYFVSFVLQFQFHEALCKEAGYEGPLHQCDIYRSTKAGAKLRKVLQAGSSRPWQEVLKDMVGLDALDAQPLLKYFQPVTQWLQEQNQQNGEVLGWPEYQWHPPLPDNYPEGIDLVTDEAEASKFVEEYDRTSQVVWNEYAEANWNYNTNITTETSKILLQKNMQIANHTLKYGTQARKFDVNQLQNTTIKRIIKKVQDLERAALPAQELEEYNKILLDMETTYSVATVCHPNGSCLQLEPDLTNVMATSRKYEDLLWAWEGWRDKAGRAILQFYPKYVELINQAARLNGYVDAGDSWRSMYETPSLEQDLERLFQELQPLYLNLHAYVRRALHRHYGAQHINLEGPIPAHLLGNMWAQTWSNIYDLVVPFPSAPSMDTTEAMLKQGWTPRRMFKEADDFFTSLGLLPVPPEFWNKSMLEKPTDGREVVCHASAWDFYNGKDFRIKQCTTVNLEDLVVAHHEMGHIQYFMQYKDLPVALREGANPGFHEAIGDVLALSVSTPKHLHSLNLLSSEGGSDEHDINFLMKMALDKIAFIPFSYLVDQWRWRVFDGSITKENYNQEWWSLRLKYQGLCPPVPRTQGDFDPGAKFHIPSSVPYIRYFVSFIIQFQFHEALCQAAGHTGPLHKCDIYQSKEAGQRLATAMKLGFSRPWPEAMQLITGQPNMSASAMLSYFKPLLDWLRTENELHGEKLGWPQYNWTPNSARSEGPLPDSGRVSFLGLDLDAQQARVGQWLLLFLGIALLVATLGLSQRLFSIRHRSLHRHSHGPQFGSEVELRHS

In the case of `CCCc1c2oc(C(=O)[O-])cc(=O)c2cc2c(=O)cc(C(=O)[O-])n(CC)c12.[Na+].[Na+]` [nedocrimal sodium], the “inhibition of TNF-alpha” value in the data set on TNF-alpha was “inhibited TNF-alpha in vitro”.

As to `CC(=O)N[C@@H](CC(=O)[O-])C(=O)N[C@@H](CCC(=O)[O-])C(=O)O.[Mg+2]` [magnesium salt of n-acetyl aspartyl glutamic acid] (Ac-Asp-Glu-OH), the “inhibition of mast cell degranulation” value in the data set with mast cell degranulation was “inhibit mast cell degranulation”. Further, in data set [1], the “effect on allergen induced nasal obstruction” value is “reduce allergen induced nasal obstruction”.

`C[C@H](O)C(=O)Nc1c(I)c(C(=O)NC(CO)CO)c(I)c(C(=O)NC(CO)CO)c1I` [purified iopamidol, iopamidol]: in data set [2], the “inhibition of ACE compared with commercial iopamidol (contains chelator)” value was “diminishes the inhibition ACE significantly”.

`O=C(O)c1cc(=O)c2c(OCC(O)COc3cccc4oc(C(=O)O)cc(=O)c34)cccc2o1` [Sodium cromoglycate]: in the data set on TNF-alpha, the “inhibition of TNF-alpha” value was “inhibited TNF-alpha in vitro”.
